Experiment in all cases: cell-based
Common to all, as to set-up: NanoBRET live-cell target engagement; % occupancy from displacement of tracer K10 on NanoLuc-kinase fusions, mean n=3
What all share (conditions): HEK293, read-out: % inhibition
(In BRET a luciferase serves as donor, and the signal depends on an acceptor being close.)

The target of one assay is SNRK (Homo sapiens, UniProt Q9NRH2). On the procedure: (§1) • 18. Prepare 10× test compounds in OptiMEM • a. Dilute the test compound to 1000× in DMSO (or the test compound solvent). […] Add 10μL per well of 10× test compound or 10μL of the DMSO control to the 96-well plates containing cells with 1× tracer. Mix on orbital shaker for 15 s at 900 rpm. • 20. Incubate the plate at 37°C + 5% CO2 incubator for 2hr. Allow plate to cool to RT for ∼15 min, then proceed to NanoBRET^TM Assay section below. • 21. Immediately before the BRET measurements, prepare 3× Complete NanoBRET^TM Nano-Glo® Substrate in OptiMEM without serum or phenol red. […] Mix gently by inverting 5–10 times in a conical tube. (The final concentration of Extracellular NanoLuc inhibitor in the 3× solution is 60 μM, for a working concentration of 20 μM.) • a. Note: 3× solutions should be used within 1.5 h after preparation. • 22. […] Incubate 2–3 min at RT. Following addition of NanoBRET^TM Nano-Glo® Substrate, measure donor emission (e.g., 450 nm) and acceptor emission (e.g., 610 nm or 630 nm) using a NanoBRET™-compatible luminometer. Fractional occupancy Quantitation • 2. Determine Fractional Occupancy with the following equation; % Occupancy = [1 – (X – Z)/( Y – Z)]∗100 • Where: • X = BRET in the presence of the test compound and tracer, • Y = BRET in the presence of the 100% BRET Control (Tracer + DMSO) • Z = BRET for the Zero BRET Control, e.g., • a. BRET from the NanoLuc Control Vector • b. BRET from Kinase/NanoLuc fusion + saturating dose of control test compound.

The target of another assay is CDK7 (Homo sapiens, UniProt P50613). How it is done:
as §1

In another assay the target is CSNK2A2 (Homo sapiens, UniProt P19784). How it is done: as §1
In the next assay the target is SGK1 (Homo sapiens, UniProt O00141). How it is done:
as §1

The next assay addresses NUAK1 (Homo sapiens, UniProt O60285). How it is done: as §1
The target of another assay is PTK6 (Homo sapiens, UniProt Q13882). How it is done: as §1
In a further assay the target is CDK17 (Homo sapiens, UniProt Q00537). How it is done: as §1
Another assay addresses PHKG2 (Homo sapiens, UniProt P15735). How it is done:
as §1

The next assay deals with RPS6KA1 (Homo sapiens, UniProt Q15418). On the procedure:
as §1

A further assay deals with STK38L (Homo sapiens, UniProt Q9Y2H1). On the procedure: as §1
The target in a further assay is STK36 (Homo sapiens, UniProt Q9NRP7). How it is done: as §1
The next assay addresses CAMK1 (Homo sapiens, UniProt Q14012). How it is done: as §1
The next assay concerns the target LIMK1 (Homo sapiens, UniProt P53667). On the procedure:
as §1

A further assay deals with TLK2 (Homo sapiens, UniProt Q86UE8). On the procedure:
as §1

For the next assay, the target named is MYLK4 (Homo sapiens, UniProt Q86YV6). How it is done:
as §1

For a further assay, the target named is PLK2 (Homo sapiens, UniProt Q9NYY3). On the procedure:
as §1

The target in another assay is PRKX (Homo sapiens, UniProt P51817). How it is done:
as §1

In another assay the target is WEE1 (Homo sapiens, UniProt P30291). On the procedure:
as §1

Chain of CDK17 (Q00537 whole entry): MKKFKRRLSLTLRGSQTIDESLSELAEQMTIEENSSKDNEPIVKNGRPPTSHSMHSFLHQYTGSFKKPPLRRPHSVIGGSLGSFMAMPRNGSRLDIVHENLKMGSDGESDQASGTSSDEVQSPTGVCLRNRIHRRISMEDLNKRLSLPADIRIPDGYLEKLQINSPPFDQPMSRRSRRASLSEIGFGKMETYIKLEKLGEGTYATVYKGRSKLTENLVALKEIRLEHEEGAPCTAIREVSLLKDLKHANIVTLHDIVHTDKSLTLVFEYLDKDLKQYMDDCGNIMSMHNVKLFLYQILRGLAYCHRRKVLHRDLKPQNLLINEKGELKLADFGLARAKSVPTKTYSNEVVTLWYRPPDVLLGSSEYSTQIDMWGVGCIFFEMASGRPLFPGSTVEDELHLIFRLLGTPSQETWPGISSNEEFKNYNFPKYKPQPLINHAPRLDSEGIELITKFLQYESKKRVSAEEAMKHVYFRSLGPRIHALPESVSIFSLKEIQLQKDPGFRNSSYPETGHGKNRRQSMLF
Chain of STK38L (Q9Y2H1 whole entry): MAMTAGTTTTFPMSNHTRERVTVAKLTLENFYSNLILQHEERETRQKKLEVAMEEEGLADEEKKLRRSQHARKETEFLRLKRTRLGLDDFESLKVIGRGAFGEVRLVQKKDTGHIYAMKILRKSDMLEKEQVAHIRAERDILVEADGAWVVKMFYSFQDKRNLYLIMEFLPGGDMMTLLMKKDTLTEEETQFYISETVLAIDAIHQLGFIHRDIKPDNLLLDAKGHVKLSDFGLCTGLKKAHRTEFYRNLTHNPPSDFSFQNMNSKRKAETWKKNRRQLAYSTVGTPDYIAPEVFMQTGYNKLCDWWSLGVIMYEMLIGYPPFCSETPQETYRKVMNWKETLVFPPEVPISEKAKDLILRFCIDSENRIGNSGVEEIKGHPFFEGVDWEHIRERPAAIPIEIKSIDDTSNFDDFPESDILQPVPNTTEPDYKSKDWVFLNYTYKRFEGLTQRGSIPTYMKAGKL
Chain of MYLK4 (Q86YV6 whole entry): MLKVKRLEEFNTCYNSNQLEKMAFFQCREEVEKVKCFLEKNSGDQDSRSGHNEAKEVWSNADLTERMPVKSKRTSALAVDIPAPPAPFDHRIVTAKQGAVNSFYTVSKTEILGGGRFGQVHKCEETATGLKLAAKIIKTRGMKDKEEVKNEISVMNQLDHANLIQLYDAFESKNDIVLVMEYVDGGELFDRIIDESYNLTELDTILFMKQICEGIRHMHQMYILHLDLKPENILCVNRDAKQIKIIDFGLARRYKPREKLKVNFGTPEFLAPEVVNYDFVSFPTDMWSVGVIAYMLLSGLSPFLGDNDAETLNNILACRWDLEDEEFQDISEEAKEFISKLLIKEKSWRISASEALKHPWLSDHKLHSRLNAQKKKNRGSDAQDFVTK
Chain of PLK2 (Q9NYY3 whole entry): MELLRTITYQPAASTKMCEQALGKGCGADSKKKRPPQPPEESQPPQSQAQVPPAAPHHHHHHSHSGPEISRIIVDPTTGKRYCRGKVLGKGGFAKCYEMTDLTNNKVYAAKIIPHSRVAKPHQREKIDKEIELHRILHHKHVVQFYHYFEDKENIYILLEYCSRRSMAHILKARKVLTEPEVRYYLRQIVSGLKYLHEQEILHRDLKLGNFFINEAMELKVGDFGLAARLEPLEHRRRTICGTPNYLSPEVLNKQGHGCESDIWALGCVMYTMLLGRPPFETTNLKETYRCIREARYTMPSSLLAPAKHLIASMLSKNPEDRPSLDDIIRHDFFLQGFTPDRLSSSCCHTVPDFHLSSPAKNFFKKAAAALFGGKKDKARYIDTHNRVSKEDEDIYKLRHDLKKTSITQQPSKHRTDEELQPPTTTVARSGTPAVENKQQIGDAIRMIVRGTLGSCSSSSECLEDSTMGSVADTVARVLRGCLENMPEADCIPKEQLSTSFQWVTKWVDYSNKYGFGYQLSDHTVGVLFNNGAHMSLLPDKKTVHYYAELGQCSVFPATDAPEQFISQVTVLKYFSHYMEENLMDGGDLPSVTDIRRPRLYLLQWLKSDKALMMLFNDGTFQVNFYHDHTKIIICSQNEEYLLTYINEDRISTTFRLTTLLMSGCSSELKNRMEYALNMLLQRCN
Chain of PRKX (P51817 whole entry): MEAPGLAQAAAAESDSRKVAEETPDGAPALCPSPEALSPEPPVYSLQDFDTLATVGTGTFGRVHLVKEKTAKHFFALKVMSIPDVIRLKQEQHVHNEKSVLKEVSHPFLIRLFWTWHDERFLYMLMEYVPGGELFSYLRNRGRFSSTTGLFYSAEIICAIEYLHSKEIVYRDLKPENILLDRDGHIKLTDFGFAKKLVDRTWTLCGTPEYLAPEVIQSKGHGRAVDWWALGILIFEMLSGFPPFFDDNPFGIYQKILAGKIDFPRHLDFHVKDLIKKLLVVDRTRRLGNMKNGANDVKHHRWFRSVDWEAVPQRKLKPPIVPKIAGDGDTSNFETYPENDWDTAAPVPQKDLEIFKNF
Chain of PTK6 (Q13882 whole entry): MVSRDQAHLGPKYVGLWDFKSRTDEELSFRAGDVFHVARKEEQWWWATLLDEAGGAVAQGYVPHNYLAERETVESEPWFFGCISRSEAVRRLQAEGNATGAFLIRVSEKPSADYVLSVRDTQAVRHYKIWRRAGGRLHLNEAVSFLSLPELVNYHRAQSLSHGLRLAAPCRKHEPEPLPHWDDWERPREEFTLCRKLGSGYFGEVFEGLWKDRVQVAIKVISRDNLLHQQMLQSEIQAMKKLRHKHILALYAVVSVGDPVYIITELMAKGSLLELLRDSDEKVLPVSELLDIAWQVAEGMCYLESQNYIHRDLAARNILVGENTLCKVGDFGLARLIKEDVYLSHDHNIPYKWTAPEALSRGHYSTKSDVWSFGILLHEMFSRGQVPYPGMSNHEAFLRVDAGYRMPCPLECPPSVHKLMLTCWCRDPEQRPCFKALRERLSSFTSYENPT
Chain of RPS6KA1 (Q15418 whole entry): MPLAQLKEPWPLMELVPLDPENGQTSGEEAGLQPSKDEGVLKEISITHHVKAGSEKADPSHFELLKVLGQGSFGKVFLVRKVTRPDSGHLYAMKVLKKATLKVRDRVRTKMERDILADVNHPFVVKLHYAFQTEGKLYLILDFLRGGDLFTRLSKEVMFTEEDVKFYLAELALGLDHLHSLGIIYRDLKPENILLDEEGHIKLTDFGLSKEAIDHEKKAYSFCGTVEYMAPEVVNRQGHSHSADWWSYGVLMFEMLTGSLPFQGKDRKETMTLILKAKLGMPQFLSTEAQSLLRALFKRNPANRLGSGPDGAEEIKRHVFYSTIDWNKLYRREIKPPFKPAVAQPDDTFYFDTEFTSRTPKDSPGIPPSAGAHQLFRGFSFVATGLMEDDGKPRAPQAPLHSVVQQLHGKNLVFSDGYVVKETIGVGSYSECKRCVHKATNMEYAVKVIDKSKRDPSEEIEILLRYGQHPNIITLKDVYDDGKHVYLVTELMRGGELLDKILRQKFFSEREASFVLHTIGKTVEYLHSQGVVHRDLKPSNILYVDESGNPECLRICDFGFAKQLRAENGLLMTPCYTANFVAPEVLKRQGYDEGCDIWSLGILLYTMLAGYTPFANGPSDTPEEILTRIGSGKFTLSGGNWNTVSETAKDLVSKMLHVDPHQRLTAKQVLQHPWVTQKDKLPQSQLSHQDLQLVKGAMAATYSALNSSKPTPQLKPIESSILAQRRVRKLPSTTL
Chain of STK36 (Q9NRP7 whole entry): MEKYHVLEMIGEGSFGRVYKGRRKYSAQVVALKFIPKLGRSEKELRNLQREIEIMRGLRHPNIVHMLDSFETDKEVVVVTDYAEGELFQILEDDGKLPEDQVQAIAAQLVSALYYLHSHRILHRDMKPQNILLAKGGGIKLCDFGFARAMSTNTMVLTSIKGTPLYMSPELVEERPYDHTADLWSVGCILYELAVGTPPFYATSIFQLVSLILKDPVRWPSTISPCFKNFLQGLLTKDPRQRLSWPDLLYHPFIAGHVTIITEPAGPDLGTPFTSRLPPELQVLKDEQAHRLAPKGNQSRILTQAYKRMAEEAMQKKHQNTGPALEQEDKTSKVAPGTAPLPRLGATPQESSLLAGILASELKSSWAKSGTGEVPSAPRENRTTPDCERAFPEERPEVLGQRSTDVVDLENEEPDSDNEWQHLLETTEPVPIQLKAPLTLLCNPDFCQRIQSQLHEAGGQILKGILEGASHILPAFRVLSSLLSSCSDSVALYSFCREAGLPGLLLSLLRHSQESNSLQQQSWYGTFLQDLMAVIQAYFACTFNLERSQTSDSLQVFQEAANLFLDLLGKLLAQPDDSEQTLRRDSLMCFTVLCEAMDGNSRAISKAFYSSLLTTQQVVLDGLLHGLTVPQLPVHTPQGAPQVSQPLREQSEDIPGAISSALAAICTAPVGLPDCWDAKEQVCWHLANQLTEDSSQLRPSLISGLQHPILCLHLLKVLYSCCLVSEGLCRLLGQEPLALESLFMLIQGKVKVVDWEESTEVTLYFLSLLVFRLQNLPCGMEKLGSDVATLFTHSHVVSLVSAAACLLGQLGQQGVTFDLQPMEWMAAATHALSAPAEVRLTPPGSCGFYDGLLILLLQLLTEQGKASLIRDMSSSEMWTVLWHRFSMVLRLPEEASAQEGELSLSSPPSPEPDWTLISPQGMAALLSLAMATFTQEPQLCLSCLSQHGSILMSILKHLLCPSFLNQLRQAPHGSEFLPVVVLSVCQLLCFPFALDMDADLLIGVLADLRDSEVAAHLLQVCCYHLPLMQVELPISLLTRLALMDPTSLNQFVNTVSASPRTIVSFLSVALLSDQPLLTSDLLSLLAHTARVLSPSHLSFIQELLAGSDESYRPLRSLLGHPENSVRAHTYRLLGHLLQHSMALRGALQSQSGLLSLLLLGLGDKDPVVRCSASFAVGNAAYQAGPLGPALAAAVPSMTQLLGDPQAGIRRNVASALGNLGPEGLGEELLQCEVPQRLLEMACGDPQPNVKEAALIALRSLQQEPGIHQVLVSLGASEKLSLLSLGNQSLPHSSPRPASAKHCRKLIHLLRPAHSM

By inhibition is commonly meant the relative decrease from the control value, in per cent. Consider `C[C@@H](Oc1cc(-c2cnn(C3CCNCC3)c2)cnc1N)c1c(Cl)ccc(F)c1Cl` [crizotinib], for which the inhibition at 1 µM is -4% on SNRK; 32% at CDK7; -14% at CSNK2A2; -1% at SGK1; 36% on NUAK1; -2% at PTK6. Moreover, the inhibition at 1 µM is 3% at CDK17; 3% at PHKG2; -6% at RPS6KA1; 5% at STK38L; -6% at STK36; 7% on CAMK1. Also, the inhibition at 1 µM on LIMK1 is 29%; at TLK2, 0%; on MYLK4 it was -8%; on PLK2, 4%; on PRKX, -14%; at WEE1 it was -9%.
